Source: PMC8112869, “Therapeutic inhibition of keratinocyte TRPV3 sensory channel by local anesthetic dyclonine” (eLife, 2021)

Target: T1, endogenous TRPV3 channels in mouse keratinocytes (Mus musculus, UniProt Q8K424)
T1 construct: endogenous in cells; host or cells: primary epidermal keratinocytes of newborn WT C57B/6 mice
T1 sequence (Q8K424 1-791): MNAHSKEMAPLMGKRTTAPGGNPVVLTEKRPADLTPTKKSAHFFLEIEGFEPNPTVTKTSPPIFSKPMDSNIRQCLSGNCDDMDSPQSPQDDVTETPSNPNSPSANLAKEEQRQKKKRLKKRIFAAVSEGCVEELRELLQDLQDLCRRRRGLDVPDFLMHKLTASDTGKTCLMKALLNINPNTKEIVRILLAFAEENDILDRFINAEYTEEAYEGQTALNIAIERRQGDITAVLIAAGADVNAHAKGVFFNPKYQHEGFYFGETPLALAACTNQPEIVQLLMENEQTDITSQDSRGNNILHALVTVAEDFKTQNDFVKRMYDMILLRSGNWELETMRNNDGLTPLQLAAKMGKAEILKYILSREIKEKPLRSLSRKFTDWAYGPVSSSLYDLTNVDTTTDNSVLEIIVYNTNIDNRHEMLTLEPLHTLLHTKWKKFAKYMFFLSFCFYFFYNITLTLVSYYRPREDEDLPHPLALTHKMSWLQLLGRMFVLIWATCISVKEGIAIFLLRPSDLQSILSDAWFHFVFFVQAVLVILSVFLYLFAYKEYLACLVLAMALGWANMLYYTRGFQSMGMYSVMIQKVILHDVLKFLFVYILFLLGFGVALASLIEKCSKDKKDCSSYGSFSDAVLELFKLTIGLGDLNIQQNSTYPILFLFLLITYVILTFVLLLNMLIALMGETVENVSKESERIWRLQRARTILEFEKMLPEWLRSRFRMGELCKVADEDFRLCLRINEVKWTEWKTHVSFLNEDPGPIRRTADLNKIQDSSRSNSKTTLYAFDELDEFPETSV
Test: Whole-cell recording of 2-APB-evoked TRPV3 currents in primary mouse epidermal keratinocytes
Assay type: cell-based
Details: for TRPV3 currents, of control level: 300 μM 2-APB, –60 mV
Protocol: The animal protocol used in this study was approved by the Institutional Animal Care and Use Committee of Wuhan University. Primary mouse keratinocytes were prepared according to the method previously described ([Luo et al., 2012]; [Pirrone et al., 2005]). Briefly, newborn WT C57B/6 mice (postnatal days 1–3) were deeply anaesthetized and decapitated and then soaked in 10% povidone-iodine, 70% ethanol, and phosphate-buffered saline (PBS) for 5 min, respectively. The skin on the back was removed and rinsed with pre-cold sterile PBS in a 100 mm Petri dish and transferred into a 2 ml tube filled with pre-cold digestion buffer containing 4 mg/ml dispase II and incubated overnight at 4°C. After treatment with dispase II for 12–18 hr, the epidermis was gently peeled off from dermis and collected. Keratinocytes were dispersed by gentle scraping and flushing with KC growth medium (Invitrogen). The resulting suspension of single cells was collected by centrifuge, and cells were seeded onto coverslips pre-coated with poly-L-lysine and maintained in complete keratinocyte serum-free growth medium (Invitrogen). Cell culture medium was refreshed every two days. Patch-clamp recordings were carried out 48 hr after plating.
Conventional whole-cell and excised patch-clamp recording methods were used. For the recombinant expressing system, green fluorescent EGFP was used as a surface marker for gene expression. Recording pipettes were pulled from borosilicate glass capillaries (World Precision Instruments) and fire-polished to a resistance between 2 and 4 MΩ when filled with internal solution containing (in mM) 140 CsCl, 2.0 MgCl2, 5 EGTA, and 10 HEPES, pH 7.4 (adjusted with CsOH). Bath solution contained (in mM): 140 NaCl, 5 KCl, 3 EGTA, and 10 HEPES, pH 7.4 adjusted with NaOH. For recordings in keratinocytes, the bath saline consisted of (in mM) 140 NaCl, 5 KCl, 2 MgCl2, 2 CaCl2, 10 glucoses, and 10 HEPES, pH 7.4 adjusted with NaOH, and the pipette solution contained (in mM) 140 CsCl, 5 EGTA, and 10 HEPES, pH 7.3 adjusted with CsOH. For single-channel recordings, the pipette solution and bath solution were symmetrical and contained (in mM) 140 NaCl, 5 KCl, 3 EGTA, and 10 HEPES, pH 7.4. Isolated cells were voltage clamped and held at –60 mV using an EPC10 amplifier with the Patchmaster software (HEKAElectronics, Lambrecht, Germany). For a subset of recordings, currents were amplified using an Axopatch 200B amplifier (Molecular Devices, Sunnyvale, CA) and recorded through a BNC-2090/MIO acquisition system (National Instruments, Austin, TX) using QStudio developed by Dr. Feng Qin at State University of New York at Buffalo. […] As determined by the conductance tests, the solution around a patch under study was fully controlled by the application of a flow rate of 100 μl/min or greater. […]

CCCCOc1ccc(C(=O)CCN2CCCCC2)cc1 [dyclonine]
TRPV3 currents, of control level (5 μM dyclonine): 52% ± 7%
TRPV3 currents, of control level (30 μM dyclonine): 13% ± 0.01%
IC50 (300 μM 2-APB-evoked, read-out: IC50 on TRPV3 currents in cultured keratinocytes): 5.2 ± 0.71 µM
Hill coefficient nH (keratinocytes): 2.4 ± 0.75
